# Test results published in PubChem BioAssay (NCI).
#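 Cultured in 96-well plates, cells were exposed to test compound for 48 hours across five concentrations. The concentration for 50% growth inhibition is given as GI50. The concentration for full growth arrest is given as TGI.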
# Columns and labels:
# Assay in all cases: growth of human tumour cells (NCI), 48 h
# OVCAR-3 ovarian = tested on: OVCAR-3 ovarian
# SW-620 colon = tested on: SW-620 colon
# SF-268 CNS = tested on: SF-268 CNS
# EKVX NSCLC = tested on: EKVX NSCLC
# HL-60(TB) leukemia = tested on: HL-60(TB) leukemia
# SK-OV-3 ovarian = tested on: SK-OV-3 ovarian
# HCT-116 colon = tested on: HCT-116 colon
# KM12 colon = tested on: KM12 colon
# HS 578T breast = tested on: HS 578T breast
# NCI/ADR-RES ovarian = tested on: NCI/ADR-RES ovarian
Compound,TGI (OVCAR-3 ovarian) [µM],TGI (SW-620 colon) [µM],TGI (SF-268 CNS) [µM],TGI (EKVX NSCLC) [µM],TGI (HL-60(TB) leukemia) [µM],TGI (SK-OV-3 ovarian) [µM],TGI (HCT-116 colon) [µM],GI50 (OVCAR-3 ovarian) [µM],GI50 (SW-620 colon) [µM],GI50 (KM12 colon) [µM],TGI (KM12 colon) [µM],GI50 (HS 578T breast) [µM],TGI (HS 578T breast) [µM],GI50 (SF-268 CNS) [µM],GI50 (EKVX NSCLC) [µM],GI50 (HL-60(TB) leukemia) [µM],GI50 (SK-OV-3 ovarian) [µM],TGI (NCI/ADR-RES ovarian) [µM],GI50 (NCI/ADR-RES ovarian) [µM]
COc1cccc(C2C(C(=O)O)=C(CO)Oc3cc4c(cc32)OCO4)c1 (centres undefined),> 100,> 100,> 100,> 100,> 100,> 100,,,,,,,,,,,,,
COc1ccc2c(c1)O[C@H]1c3ccc(O)cc3OC[C@@H]21,> 100,> 100,> 100,> 100,49.8,98.9,> 100,,,,,,,,,,,,
O=C(N1CCC(CN=c2cc3n(-c4ccc(Cl)cc4)c4ccccc4nc-3cc2Nc2ccc(Cl)cc2)CC1)N1CC1,2.69,2.05,3.69,3.22,3.64,4.64,,1.1,0.709,1.4,3.21,1.48,3.54,1.3,1.53,1.5,2.25,,
O=NNc1cnccn1,> 1250,> 1250,> 1250,> 1250,> 852,> 330,> 1250,,,,> 1250,,> 1250,,,,,> 1250,
BrCCC[P+](c1ccccc1)(c1ccccc1)c1ccccc1,38.6,> 100,> 100,> 100,6.49,> 100,2.99,,,,58.1,,> 79.6,,,,,> 100,
CCN(CC)CCC(=O)c1ccccc1,38.8,41.1,40.5,> 100,43.9,,31.8,,,,> 100,,,,,,,,
CCOC(=O)C1(C(=O)OCC)CSC1,> 100,> 100,> 100,,,> 100,> 100,,,,> 100,,> 100,,,,,> 100,
CCSc1nc(N2CCCCC2)c2cn[nH]c2n1,> 100,> 100,65.8,> 100,> 100,> 100,,27.9,40.1,29,> 100,32.7,> 100,23.6,16.1,27.4,> 100,> 100,92.5
CC(=O)NC(CCCCNC(=O)OC(C)(C)C)C(=O)O (centres undefined),> 100,> 100,> 100,> 100,> 100,,> 100,,,,,,,,,,,> 100,
COC(=O)C1=COC2OC3/C(=C\c4ccc(O)c(OC)c4)C(=O)OC34C=CC1C24 (centres undefined),28.2,35.9,35.3,,27.7,31,34.4,,,,26.8,,,,,,,,
CN(C)CS/C(N)=N\C(O)C(Cl)(Cl)Cl (centres undefined),> 100,> 100,> 100,> 100,,,> 100,,,,> 100,,> 100,,,,,> 100,
Cn1c(=O)c2c(ncn2CCSS(=O)(=O)O)n(C)c1=O,> 100,> 100,> 100,> 100,,> 100,> 100,,,,> 100,,> 100,,,,,> 100,
CC(=O)[O-].[Ni].c1ccc(/C(=N\Nc2ccccn2)c2ccccn2)cc1,19.5,32.2,30.1,55.5,0.61,43.2,18,0.0385,,,23.1,,> 100,,0.0973,,,25.9,
CC(=O)[O-].CC(=O)[O-].O=C(N/N=C/c1cc(Cl)cc(Cl)c1[OH2+])c1ccncc1.[Zn+2],94.8,> 100,> 100,> 100,> 100,> 100,> 100,,,,> 100,,,,,,,,
c1ccc(SC(Sc2ccccc2)c2ccc3c(c2)OCO3)cc1,> 100,> 100,> 100,> 100,> 100,,> 100,,,,> 100,,> 100,,,,,> 100,
CCOc1ccc(N=Nc2ccc3oc(=O)c(/C(C)=N\NC(=O)CC(=O)Nc4ccc(Cl)cc4)cc3c2)cc1,30.4,38.8,41.5,34.7,,41.8,31.5,,,,60.7,,,,,,,,
O=C(O)c1cncc(C(=O)O)c1,> 100,> 100,> 100,> 100,> 100,> 100,> 100,,,,> 100,,> 100,,,,,> 100,
O=c1[nH]cc(N(CCCl)CCCl)c(=O)[nH]1,223,249,192,230,36.9,183,179,,,,232,,301,,,,,160,
C=C(CN(C)C)C(=O)c1cc(C)ccc1C,18.1,5.96,68.3,55.3,0.446,33,17.4,,,,38.3,,> 91.3,,,,,> 85.1,
